In ChEMBL document CHEMBL1156829 (Proc Natl Acad Sci U S A, 2008):

Experiments:
Plasmodium falciparum [1] = test: NOVARTIS: Inhibition of Plasmodium falciparum 3D7 (drug-susceptible) proliferation in erythrocyte-based infection assay; type: functional, organism-based; details: Plasmodium falciparum, 3D7
Plasmodium falciparum [2] = test: NOVARTIS: Inhibition of Plasmodium falciparum W2 (drug-resistant) proliferation in erythrocyte-based infection assay; type: functional, organism-based; details: Plasmodium falciparum, W2; read-out: EC50
[3] = NOVARTIS: Cytotoxicity against human hepatocellular carcinoma cell line (Huh7); type: toxicity, cell-based, Huh-7; details: Huh7 cells (hepatocellular carcinoma cell line)

SMILES | EC50 (Plasmodium falciparum [1]) | EC50 (Plasmodium falciparum [2]) | CC50 [3]
N=C(N)NN=Cc1cccc(OCc2ccc(Cl)c(Cl)c2)c1 | 1990 nM | 1690 nM | > 10000 nM
Cc1ccc2nc(Nc3nc(O)c4ccccc4n3)nc(C)c2c1 | 575 nM | > 1620 nM | > 10000 nM
COc1ccc(N=C2NC(=O)/C(=C\c3ccc(N(C)C)cc3)S2)cc1 | 1020 nM | > 1680 nM | > 10000 nM
CN(C)c1ccc(N2C(N)=NC(N)=NC23CCCC3)cc1 | 244 nM | > 1570 nM | > 10000 nM
CSc1ccc(Cl)c(Cl)c1 | 83.9 nM | 398 nM | 2350 nM
COc1cc(Nc2nccn3c(-c4ccsc4)cnc23)cc(OC)c1OC | > 1250 nM | 1650 nM | > 10000 nM
Cc1ccc(S(=O)(=O)NC(Cc2ccccc2)C(=O)N2CCC(C3CCN(C(=O)c4ccc([N+](=O)[O-])o4)CC3)CC2)cc1 (stereo not given) | 1910 nM | > 1680 nM | > 10000 nM
O=C(c1cccs1)N1CCN(c2ccccn2)CC1 | 2020 nM | > 1560 nM | > 10000 nM
CCCCC(=O)Nc1ccccc1-c1nnn(CC(=O)Nc2ccc3c(c2)OCCO3)n1 | > 1140 nM | > 1670 nM | > 10000 nM
N#CC1=C(N)Oc2c(c(=O)oc3ccccc23)C1c1ccoc1 (stereo not given) | > 1160 nM | > 1660 nM | > 10000 nM
CCCN1CCN(C(=O)CCNC(=O)Cn2cnc3ccccc3c2=O)CC1 | > 1250 nM | 1590 nM | > 10000 nM
O=C1NN=C(CC(=O)N2CC[C@@H](c3ccccc3)[C@H](O)C2)C2C=CC=CC12 (stereo not given in full) | > 853 nM | > 1590 nM | > 10000 nM
CC1CCN(C(=O)CSc2nc(NCc3ccccc3)c3ccccc3n2)CC1 | 673 nM | > 1580 nM | > 10000 nM
Cc1cccc(OCC(=O)NCCNC2=NS(=O)(=O)c3ccccc32)c1 | > 1120 nM | 1680 nM | > 10000 nM
CCOC(=O)c1c(NC(=O)CSc2nnc(CNC(=O)c3cccc(OC)c3)n2C2CCCCC2)sc2c1CCCC2 | > 295 nM | > 1670 nM | > 10000 nM
CNc1nc(Cl)nc(Nc2ccccc2)n1 | > 482 nM | 1650 nM | > 10000 nM
Cc1ccc(Nc2nc3c(N)nnc(N)c3nc2Nc2ccc(C)cc2)cc1 | 6120 nM | 2210 nM | 13300 nM
CCOC(=O)N1CCN(C(=O)c2cnc3ccc(C)cn3c2=O)CC1 | > 355 nM | > 1660 nM | > 10000 nM
CCOC(=O)c1[nH]c(C)c(CNc2cccc(F)c2)c1C | 1060 nM | 1660 nM | > 10000 nM
COC(=O)C1=C(C)Nc2[nH]c(=S)[nH]c(=O)c2C1c1ccccc1F (stereo not given) | 1280 nM | > 1650 nM | > 10000 nM
COc1cccc(CN2CCC(O)(c3ccc4oc(C(=O)Nc5ccc(Cl)cc5)cc4c3)CC2)c1 | 2160 nM | 4060 nM | 24700 nM
O=c1c2ccccc2nc(/C=C/c2ccc([N+](=O)[O-])o2)n1-c1ccc(Br)cc1 | 902 nM | > 1640 nM | > 10000 nM
CN(C)c1ccc(N/C=C/C(=O)C(C)(C)C)cc1 | 1450 nM | 1580 nM | > 10000 nM
Cc1ccc(Nc2nc3nonc3nc2N(C)C)cc1Cl | > 1460 nM | 1610 nM | > 10000 nM

SMILES | EC50 (Plasmodium falciparum [1]) | EC50 (Plasmodium falciparum [2]) | CC50 [3]
COC(C(=NO)c1ccc(Cl)cc1)c1ccccc1 (stereo not given) | > 912 nM | > 1610 nM | > 10000 nM
Brc1cc(Br)c2c(-c3ccccc3)n(-c3ccccc3)nc(-c3ccccc3)c1-2 | 753 nM | > 1710 nM | > 10000 nM
CCCCCCCCCCCCOCCCNC(=O)c1cccc(N)c1 | 1570 nM | > 1560 nM | > 10000 nM
COc1ccc(-c2cnc3ccc(NC4CCOCC4)nn23)cc1OC | > 933 nM | > 1620 nM | > 10000 nM
CC(C)CNC(=O)c1cnc(NCCCn2ccnc2)nc1NCC(C)C | 768 nM | 1610 nM | > 10000 nM
CC(C)CNC(=O)c1cnc(NCCCN2CCCCC2C)nc1NCCc1ccccc1 (stereo not given) | 374 nM | 1570 nM | > 10000 nM
Cc1ccc2nc3c(c(NCCCN(C)C)c2c1)CCC3 | 935 nM | 1560 nM | > 10000 nM
C[C@@H]1C[C@@H](C)C(=O)[C@@H](C(O)CC2CC(=O)NC(=O)C2)C1 (stereo not given in full) | 153 nM | 366 nM | 2140 nM
CN1[C@@H](C(=O)Nc2ccc3c(c2)OCO3)C[C@@H](c2ccc(F)cc2)NS1(=O)=O | 1960 nM | > 1570 nM | > 10000 nM
COc1cc(NC(C)CCCN(Cc2ccc(F)cc2)C(=O)Nc2ccc(Br)cc2)c2ncccc2c1 (stereo not given) | 927 nM | 691 nM | 4240 nM
CCOC(=O)c1cnc2ccc(OC)cc2c1Nc1ccc(N2CCN(C)CC2)cc1 | 1090 nM | > 1700 nM | > 10000 nM
CCCCNC(=O)c1ccc2c(c1)N=C(CC(C)c1ccccc1)N(C1CCCCC1)C2 (stereo not given) | 1450 nM | 8210 nM | 48700 nM
COc1ccc(C2N=C(N)N=C(N)N2c2ccc(C)cc2)cc1 (stereo not given) | 73.8 nM | > 1640 nM | > 10000 nM
CCOCCCN(C(=O)C(F)(F)F)C(C(=O)NC1CCCCC1)c1ccncc1 (stereo not given) | 1870 nM | > 1620 nM | > 10000 nM
COc1ccccc1C(=O)NNC(=O)c1ccccn1 | 1710 nM | 1380 nM | 8700 nM
COc1ccc(C(=O)/C(C#N)=C/NC2CCN(Cc3ccccc3)CC2)cc1 | 256 nM | > 1580 nM | > 10000 nM
CCCN1CCC(N2C[C@@H](NCc3cc(C)ccc3C)C[C@H]2C(=O)NCCc2ccc3c(c2)OCO3)CC1 | 478 nM | 661 nM | 4200 nM
Cc1ccc2nc(-c3ccccc3)cc(C(=O)Nc3ccc(Cl)c(Cl)c3)c2c1 | > 1250 nM | 1700 nM | > 10000 nM
N#Cc1c(NC(=O)CCl)c(C(=O)c2ccccc2)n2c1CCC2 | 298 nM | > 12500 nM | > 74200 nM
COc1cc(/C=C(\C#N)c2nc3ccccc3[nH]2)ccc1OCc1ccccc1Cl | > 1250 nM | 1670 nM | > 10000 nM
CCC(c1ccc(F)cc1)n1cc(C(=O)NCCCN2CCC(C)CC2)nn1 (stereo not given) | > 651 nM | > 1640 nM | > 10000 nM
C=CCNC(=O)CSc1ccc(C(=O)Nc2ccc(Cl)cc2F)cc1[N+](=O)[O-] | > 1170 nM | > 1630 nM | > 10000 nM
N#C/C(=C\NC1CCN(Cc2ccccc2)CC1)C(=O)c1cccs1 | 220 nM | 1620 nM | > 10000 nM
O=C(c1ccncc1)N1N=C(C(F)(F)F)CC1(O)c1cccc([N+](=O)[O-])c1 (stereo not given) | > 1220 nM | > 1680 nM | > 10000 nM

SMILES | EC50 (Plasmodium falciparum [1]) | EC50 (Plasmodium falciparum [2]) | CC50 [3]
Cc1cc(Nc2ccc(Br)cc2)nc2ccccc12 | > 1250 nM | 1690 nM | > 10000 nM
O=C(Cn1c2ccccc2c(=O)c2cc(Cl)ccc21)Nc1cccc(C(F)(F)F)c1 | > 1360 nM | 1650 nM | > 10000 nM
CC[n+]1c(/C=C(C)/C=C2\Sc3ccccc3N2CCO)sc2ccccc21 | > 1250 nM | 1640 nM | > 10000 nM
COc1c([N+](=O)[O-])cc2c(c1Br)OC1(C=C2)N(C)c2ccccc2C1(C)C (stereo not given) | 1740 nM | > 1570 nM | > 10000 nM
FC(F)(F)c1cccc(Nc2nc3nonc3nc2Nc2ccc(Cl)cc2)c1 | > 1310 nM | 1610 nM | > 10000 nM
CCN1C(=O)NC(c2cccc(NC(=O)Nc3cc(C(F)(F)F)cc(C(F)(F)F)c3)c2)C(C(=O)OC(C)C)=C1C (stereo not given) | 8420 nM | 6010 nM | 35300 nM
COC(=O)C1=C(OC)C(=O)OC12C=CC(=O)C=C2 | 2220 nM | 423 nM | 2520 nM
CC1CC(C)CN(c2ccc([N+](=O)[O-])cc2-c2nnn[nH]2)C1 (stereo not given) | > 831 nM | > 1610 nM | > 10000 nM
Cc1ccc(N2C(=O)CC(NCCCN3CCOCC3)C2=O)cc1 (stereo not given) | > 1290 nM | 1610 nM | > 10000 nM
O=C(Nc1ccc(C(c2ccccc2)(c2ccccc2)c2ccc(NC(=O)c3cccc([N+](=O)[O-])c3)cc2)cc1)c1cccc([N+](=O)[O-])c1 | > 1250 nM | 1680 nM | > 10000 nM
CC(C)c1ccc(C=NNC(=O)c2ccccc2O)cc1 | > 1250 nM | 1680 nM | > 10000 nM
O=c1nc(/C=C/c2ccc(Cl)cc2)oc2ccccc12 | 1850 nM | > 1660 nM | > 10000 nM
O=C(Cn1c(=O)oc2cc(Cl)ccc21)c1ccccc1 | > 12500 nM | 4500 nM | 28400 nM
CC(C)CCn1c(NCc2ccccc2)nc2c1c(=O)n(CC(N)=O)c(=O)n2C | > 1250 nM | 1710 nM | > 10000 nM
Cc1nnc2sc(SCc3ccc([N+](=O)[O-])cc3)nn2c1=O | > 481 nM | > 1640 nM | > 10000 nM
CN(C)CCNc1cc(-c2cccc(C(F)(F)F)c2)nc(-c2ccncc2)n1 | > 1250 nM | 1680 nM | > 10000 nM
CC1=C(C(=O)OCCC(C)C)C(c2ccccc2)C(C(=O)OCCC(C)C)=C(C)N1 | > 918 nM | > 1630 nM | > 10000 nM
COc1ccc(C(NC(=O)COc2ccccc2)c2cc(Cl)c3cccnc3c2O)cc1OC (stereo not given) | 4660 nM | 3080 nM | 18500 nM
COc1ccc(-c2cc(C(=O)NCc3cccnc3)no2)cc1OC | > 1290 nM | 1700 nM | > 10000 nM
Fc1ccc(Nc2nc(OC(C(F)(F)F)C(F)(F)F)nc(OC(C(F)(F)F)C(F)(F)F)n2)cc1 | > 1340 nM | 1570 nM | > 10000 nM
COc1ccccc1NC(=O)Cn1cnc2sc(C(=O)Nc3ccc(F)cc3)c(C)c2c1=O | 513 nM | > 1710 nM | > 10000 nM
COc1ccc(C2C(C(=O)NCCN(C)C)c3ccccc3C(=O)N2C2CCCCC2)cc1 (stereo not given) | > 427 nM | 1610 nM | > 10000 nM
